Reference: patent publication US12630643B2, “CD40 binding protein, bispecific conjugate thereof and method of treating cancer” (priority 2020, dated 2026)

Experiments:
14GIIICII scFv = format: binding, mouse
IBIIICI scFv = format: binding, mouse
Human CD40-avi = Human CD40-avi (Homo sapiens, UniProt P25942); test: SPR kinetic measurements (single cycle kinetics) on captured IgG2, hCD40-avi; settings: 1:1 Langmuir binding model
Cynomolgus CD40-Fc = test: SPR kinetic measurements (single cycle kinetics) on captured IgG2, cCD40-Fc; settings: for ka / kd: Cynomolgus CD40-Fc (dimer, avidity effects may contribute)
Canine CD40-Fc = target: T1, Canine CD40-Fc (Canis lupus familiaris, UniProt Q7YRL5); test: SPR single cycle kinetics of Example 5, canine CD40-Fc; format: binding
T1 construct: purchased Sino Biological 70105-D02H
T1 sequence (Q7YRL5 21-193 limits assumed): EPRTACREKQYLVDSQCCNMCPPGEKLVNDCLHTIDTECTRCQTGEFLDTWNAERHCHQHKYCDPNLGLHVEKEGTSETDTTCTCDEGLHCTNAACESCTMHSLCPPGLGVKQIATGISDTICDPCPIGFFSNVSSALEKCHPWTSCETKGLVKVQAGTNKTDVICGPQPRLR

canine (dog) CD40 = target: T2, canine (dog) CD40 (Canis lupus familiaris, UniProt Q7YRL5); settings: stated in US2006-0093600; cited from earlier work
T2 sequence (Q7YRL5 21-274): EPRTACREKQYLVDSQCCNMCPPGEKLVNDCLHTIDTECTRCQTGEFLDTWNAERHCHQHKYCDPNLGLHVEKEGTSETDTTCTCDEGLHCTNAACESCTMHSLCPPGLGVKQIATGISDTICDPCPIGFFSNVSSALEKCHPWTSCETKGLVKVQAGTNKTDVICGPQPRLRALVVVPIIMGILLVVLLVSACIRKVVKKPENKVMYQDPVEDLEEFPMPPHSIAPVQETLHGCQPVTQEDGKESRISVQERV

Human CD40-Fc [1] = target: T3, Human CD40-Fc (Homo sapiens, UniProt P25942); test: SPR kinetic measurements (single cycle kinetics) on captured IgG2, hCD40-Fc; settings: for ka / kd: Human CD40-Fc (dimer, avidity effects may contribute)
Target sequence in this assay (P25942 21-193): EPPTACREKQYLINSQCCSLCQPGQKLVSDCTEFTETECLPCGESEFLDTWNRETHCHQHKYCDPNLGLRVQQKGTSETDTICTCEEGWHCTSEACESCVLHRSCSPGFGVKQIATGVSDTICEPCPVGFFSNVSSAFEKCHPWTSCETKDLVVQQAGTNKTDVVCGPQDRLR

CD40 on CD19+ cells = CD40 on CD19+ cells (Homo sapiens, UniProt P25942); test: Competitive binding with anti-CD40-FITC antibody 5C3, flow cytometry; settings: 25 nM-50 nM antibody, 30 min on ice
[2] = target: CD40 ligand interaction with CD40 (Homo sapiens, UniProt P25942); settings: Yu et al. 2018; WO 2015/091853; cited from earlier work
Human CD40-Fc [3] = target: T3, Human CD40-Fc; test: SPR single cycle kinetics of Example 5, human CD40-Fc; design: purchased Sino Biological 10774-H38H; settings: 1:1 Binding
Target sequence in this assay (P25942 21-193 limits assumed): as the sequence (P25942 21-193) above

[4] = test system: human monocyte-derived dendritic cells; test: Internalisation of antibody into dendritic cells; settings: 125 nM antibody
[5] = test system: human monocyte-derived DC (MoDC); test: MoDC activation, flow cytometry of surface activation markers (t-SNE); settings: 125 nM antibody, 48 hours of stimulation

Human CD40-avi, sequence (P25942 21-193): as above
CD40 ligand interaction with CD40, sequence (P25942 21-277): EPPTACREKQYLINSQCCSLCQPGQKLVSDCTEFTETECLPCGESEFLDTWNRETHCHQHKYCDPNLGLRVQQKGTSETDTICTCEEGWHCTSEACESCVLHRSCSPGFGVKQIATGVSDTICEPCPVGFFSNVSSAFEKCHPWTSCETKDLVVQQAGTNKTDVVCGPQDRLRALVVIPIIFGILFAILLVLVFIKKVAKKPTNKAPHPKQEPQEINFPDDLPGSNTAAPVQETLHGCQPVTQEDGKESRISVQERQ
CD40 on CD19+ cells, sequence (P25942 21-277): as above

Row | Molecule | Kd (14GIIICII scFv) | ka (14GIIICII scFv) | kd (14GIIICII scFv) | Kd (IBIIICI scFv) | ka (IBIIICI scFv) | kd (IBIIICI scFv) | other results
1 | FIGITELKKLES [UU74] | 1700 pM | 570000 M⁻¹ s⁻¹ | 0.00095 s⁻¹ | 120 pM | 280000 M⁻¹ s⁻¹ | 3.3e-05 s⁻¹ | 
2 | FIGITELKKLESK [UU73] | 870 pM | 510000 M⁻¹ s⁻¹ | 0.00044 s⁻¹ | 340 pM | 200000 M⁻¹ s⁻¹ | 6.7e-05 s⁻¹ | 
3 | FIGITELKKLESKI [UU72] | 600 pM | 570000 M⁻¹ s⁻¹ | 0.00034 s⁻¹ |  | 250000 M⁻¹ s⁻¹ |  | kd (1/s) (IBIIICI scFv): * (key: *: too low for, or very close to the detection limit of, instrument specification (<10^−5))
4 | FIGITELKKLESKIN [UU71] | 600 pM | 540000 M⁻¹ s⁻¹ | 0.00032 s⁻¹ |  | 230000 M⁻¹ s⁻¹ |  | kd (1/s) (IBIIICI scFv): * (key: *: too low for, or very close to the detection limit of, instrument specification (<10^−5))
5 | FIGITELKKLESKINK [UU70] | 290 pM | 650000 M⁻¹ s⁻¹ | 0.00019 s⁻¹ | 160 pM | 230000 M⁻¹ s⁻¹ | 3.7e-05 s⁻¹ | 
6 | FIGITELKKLESKINKVF (SEQ ID NO: 25), C-term K-biotin; full length MTTE [UU24] | 300 pM | 660000 M⁻¹ s⁻¹ | 0.0002 s⁻¹ | 120 pM | 190000 M⁻¹ s⁻¹ | 2.3e-05 s⁻¹ | 
7 | X-SM083-ab-5: agonistic anti-CD40 antibody CP-870,893 (US 2017/0342159) as hIgG2 |  |  |  |  |  |  | Kd (Human CD40-avi): 18000 pM; ka (Human CD40-avi): 62000 M⁻¹ s⁻¹; kd (Human CD40-avi): 0.0011 s⁻¹; ka (Cynomolgus CD40-Fc): 91000 M⁻¹ s⁻¹; kd (Cynomolgus CD40-Fc): 2.5e-05 s⁻¹; Ka (Canine CD40-Fc; Canine CD40-Fc, 1:1 Binding): 170000 M⁻¹ s⁻¹; kd (Canine CD40-Fc; Canine CD40-Fc, 1:1 Binding): 0.00041 s⁻¹; affinity for canine CD40 lower than for the human orthologue (Canine CD40-Fc; canine vs human CD40-Fc): approximately 10 times; binding to canine CD40 (Canine CD40-Fc; in words): exhibited binding to canine CD40; binding to canine (dog) CD40 (canine (dog) CD40): does not bind to canine (dog) CD40; ka (Human CD40-Fc [1]): 66000 M⁻¹ s⁻¹; kd (Human CD40-Fc [1]): 3.2e-05 s⁻¹; 5C3-FITC staining after pre-incubation with antibody (CD40 on CD19+ cells): loss of the FITC signal; competition with / blocking of CD40 ligand [2]: without blocking CD40 ligand interaction; kd (Human CD40-Fc [3]): 3.6e-05 s⁻¹; Kd (Human CD40-Fc [3]; read-out: ^appKD): 200 pM; Ka (Human CD40-Fc [3]; optimised follow-up experiment): 190000 M⁻¹ s⁻¹
8 | X-SM083-ab-2: agonistic anti-CD40 antibody 1150/1151 (WO 2015/091853) as hIgG2 (antibody, left off: a dimerising Fc or GST, agonistic anti-CD40 antibody 1150/1151 (WO 2015/091853) as hIgG2) heavy: EVQLLESGGGLVQPGGSLRLSCAASGFTFSSYAMSWVRQAPGKGLEWVSGIGGSSSYTSYADSVKGRFTISRDNSKNTLYLQMNSLRAEDTAVYYCARYYSYHMDYWGQGTLVTVSSASTKGPSVFPLAPCSRSTSESTAALGCLVKDYFPEPVTVSWNSGALTSGVHTFPAVLQSSGLYSLSSVVTVPSSNFGTQTYTCNVDHKPSNTKVDKTVERKCCVECPPCPAPPVAGPSVFLFPPKPKDTLMISRTPEVTCVVVDVSHEDPEVQFNWYVDGVEVHNAKTKPREEQFNSTFRVVSVLTVVHQDWLNGKEYKCKVSNKGLPAPIEKTISKTKGQPREPQVYTLPPSREEMTKNQVSLTCLVKGFYPSDISVEWESNGQPENNYKTTPPMLDSDGSFFLYSKLTVDKSRWQQGNVFSCSVMHEALHNHYTQKSLSLSPGK light: DIQMTQSPSSLSASVGDHVTITCRASQSISSYLNWYQQKPGKAPKLLIYAASSLQSGVPSRFSGSGSGTDFTLTISSLQPEDFATYYCQQYGSAPPTFGQGTKLEIK |  |  |  |  |  |  | internalisation ([4]; after 60 min at 37° C.): 50%; antibodies remained extracellular ([4]; after 4 h incubation): Approximately 30%; Kd (Human CD40-avi): 180000 pM; ka (Human CD40-avi): 750000 M⁻¹ s⁻¹; kd (Human CD40-avi): 0.14 s⁻¹; ka (Cynomolgus CD40-Fc): 490000 M⁻¹ s⁻¹; kd (Cynomolgus CD40-Fc): 0.0018 s⁻¹; Kd (Cynomolgus CD40-Fc; read-out: ^appKD, Cynomolgus CD40-Fc, apparent affinity, 1:1 Langmuir model): 3800 pM; agonistic profile, t-SNE cluster of surface expression of CD14, CD1a, CD40, HLA-DR, CD86 and CD83 [5]: potent agonistic profile; ka (Human CD40-Fc [1]): 320000 M⁻¹ s⁻¹; kd (Human CD40-Fc [1]): 0.0014 s⁻¹; Kd (Human CD40-Fc [1]; read-out: ^appKD, Human CD40-Fc, apparent affinity, 1:1 Langmuir model): 4600 pM; competition with / blocking of CD40 ligand [2]: No competition between this antibody and CD40 ligand was observed
